Laboratory results from US20230263751A1, “Compositions and Methods of Use of beta-hydroxy-beta-methylbutyrate (HMB) and Chemotherapy Agents” (Metabolic Technologies, LLC, priority 2020, published 2023).

Experiments:
[1] = Cachexia assessment (food intake, weight loss, muscle and fat mass) of mice with EAC; assay type: in vivo, Balb/c mice (Mus musculus); conditions: 9 days; for Average daily food intake: Control 2.17±0.69, Normal 3.30±0.60; for Brown adipose tissue mass / Dry weight soleus muscle / Mesenteric fat mass / Subcutaneous fat mass / Wet weight gastrocnemius muscle / Wet weight soleus muscle: mean ± SD, n=6
Excerpt: To determine average daily food intake, the weight of the feed consumed was divided by the number of animals in each cage. To evaluate the percentage of weight loss, the “initial weight” (before inoculation of the EAC), “final weight” (after 9 days of treatment) and “carcass weight” (final weight−weight of ascitic liquid) were considered according to standardized equation [27].
The soleus and gastrocnemius muscles were quickly removed and weighed on an analytical balance (wet mass). Soleus samples were used to determine the dry weight after 3 days at 60° C., and the gastrocnemius was kept at −80° C. for the determination of cytokines. The wet mass of the gastrocnemius and soleus muscle (mg) was normalized by the length of the tibia (mm) of the mice. Subcutaneous fat deposits, mesentery and brown adipose tissue were also removed and immediately weighed.

IL-1β = IL-1β in gastrocnemius muscle by ELISA; assay type: in vivo, Balb/c mice (Mus musculus)
Description: (§1) For the determination of cytokines, the gastrocnemius muscle was homogenized in a RIPA buffer supplemented with 1% protease and 3% phosphatase inhibitors, in the proportion 1 mg tissue:10 μl buffer, followed by centrifugation of the homogenate at 12,000 g and 4° C., for 10 minutes. An aliquot of the supernatant was used to determine the cytokines IL-1β and IL-6 by ELISA immunoassay using DuoSet® Kit (R&D System, USA), according to the manufacturer recommendations.

IL-6 = IL-6 in gastrocnemius muscle by ELISA; assay type: in vivo, Balb/c mice (Mus musculus); conditions: in relation to the Control group
Description: as §1

EAC cells [2] = test: Tumor growth inhibition and morphological evaluation of mice with EAC; assay type: in vivo, Balb/c mice (Mus musculus); conditions: 9 days treatment
Description: Female (18 to 23 g weight, 60 days) Balb/c mice (Mus musculus) obtained from controlled reproduction carried out in the sectoral bioterium of the Federal University of Santa Catarina (Brazil), were kept in plastic cages under controlled environmental conditions (12 h light-dark cycle, 25±2° C., relative humidity 60%), receiving commercial feed and water ad libitum.
The moment before the tumor was inoculated, the abdominal circumference was measured. The treatments were administered intraperitoneally for 9 consecutive days. Twenty-four hours after the last treatment, all mice were weighed and their abdominal circumferences measured again. The inhibition (%) of tumour growth was calculated as follow: [(average in waist circumference of the treated group×100)/average in waist circumference of the control group]−100.
(§2) In addition, after euthanasia, all ascitic fluid was collected to measure volume and weight. Finally, Balb/c mice (n=12) were chosen at random and kept alive to assess the effects of HMB, Doxo and Doxo+HMB on survival time according to Kaplan and Meier (1958); survival assessments were discontinued after 30 days.

EAC cells [3] = test: Assessment of death type in harvested tumor cells (propidium iodide/acridine orange)
Description: The mice were divided into 5 groups (n=6): Normal (healthy animals), Control (saline), Doxo (1 mg/kg/day), HMB (617.3 mg calcium HMB/kg/day) and Doxo+HMB (1 mg/kg/day and 617.3 mg/kg/day, respectively). The animals belonging to the Control, Doxo, HMB and Doxo+HMB groups were inoculated with EAC cells (200 μL, 5×10^6 cells) by intraperitoneal injection and treatment of animals was started after 96 hours. The dose of HMB was defined based on the recommendation for adult men of 70 kg, that is, 3 g/day (supplementary form) [21].
Harvested tumor cells (5×10^6) were stained with 1 μL of a solution (1:1) of propidium iodide (100 μg/mL) and acridine orange (100 μg/mL). The samples were read by fluorescence microscopy on the green (excitation at 460 nm and emission at 520 nm) and red (excitation at 492 nm at emission at 620 nm) filters, and the results were expressed as percentage of viable (green), apoptotic (orange) and necrotic (red) cells [24].

C-reactive protein = test: Serum C-reactive protein (Ultra Turbiquest Plus CRP kit); assay type: in vivo, Balb/c mice (Mus musculus); conditions: for Serum C-reactive protein levels: mice with EAC, 9 days, Control 1.63, Normal 0.07
Description: The determination of C-reactive protein (CRP) in serum was performed by the Ultra Turbiquest Plus® CRP kit, according to the manufacturer instructions.

Bax/Bcl-xl = test: Western blotting of Bax and Bcl-xl in EAC cells (Bax/Bcl-xl ratio); assay type: in vivo, Balb/c mice (Mus musculus)
Description: Apoptotic markers were evaluated by Western blotting. […] The proteins were further denatured in Laemmli buffer and equivalent amounts were subjected to SDS-PAGE electrophoresis, followed by electroblotting on PVDF membranes. The membranes were blocked and then incubated with the primary monoclonal antibodies: p53 (Santa Cruz Biotechnology, DO-1; sc-126), Bax (Santa Cruz Biotechnology, B-9; sc-7480) and BcL-xl (Santa Cruz Biotechnology, H-5; sc-8392), and subsequently incubated with peroxidase conjugated secondary antibodies (Dako and Chemicon). Immunodetection was performed using a chemiluminescence determination kit, and β-actin was used as a loading control.

EAC cells [4] = test: Survival assessment of mice with EAC (Kaplan and Meier); assay type: in vivo, Balb/c mice (Mus musculus); conditions: for Mean survival time: mice with EAC, n=12, observation discontinued after 30 days, Control 16 days
Excerpt: as §2

p53 = test: Western blotting of p53 in EAC cells; assay type: in vivo, Balb/c mice (Mus musculus); conditions: p53/actin
Description: (§3) Apoptotic markers were evaluated by Western blotting. EAC cells were washed with PBS and lysed in RIPA buffer supplemented with 1% protease and 3% phosphatase inhibitors. The proteins were further denatured in Laemmli buffer and equivalent amounts were subjected to SDS-PAGE electrophoresis, followed by electroblotting on PVDF membranes. The membranes were blocked and then incubated with the primary monoclonal antibodies: p53 (Santa Cruz Biotechnology, DO-1; sc-126), Bax (Santa Cruz Biotechnology, B-9; sc-7480) and BcL-xl (Santa Cruz Biotechnology, H-5; sc-8392), and subsequently incubated with peroxidase conjugated secondary antibodies (Dako and Chemicon). Immunodetection was performed using a chemiluminescence determination kit, and β-actin was used as a loading control. Images were obtained with the ChemiDoc MP (Bio Rad) system.

[5] = test system: tumors injected into the peritoneal cavity; conditions: rats; cited from earlier work
COX-2 = COX-2 expression in EAC cells by Western blotting; assay type: in vivo, Balb/c mice (Mus musculus); conditions: COX-2/actin in EAC cells
Description: as §3
The COX-2 expression in EAC cells was assessed by Western blotting as described in item 2.2.3. Antibodies to COX-2 were purchased from Cell Signaling (#4842)

[6] = serum HMB levels; cited from earlier work
[7] = EAC cells harvested after 9 days treatment

| SMILES | Average daily food intake [1] [g/day] | Brown adipose tissue mass [1] [mg/cm mouse length] | Dry weight soleus muscle [1] [mg/mm tibia length] | Mesenteric fat mass [1] [mg/cm mouse length] | Subcutaneous fat mass [1] [mg/cm mouse length] | Wet weight gastrocnemius muscle [1] [mg/mm tibia length] | Wet weight soleus muscle [1] [mg/mm tibia length] | Reduction of IL-6 (IL-6) [%] | Serum C-reactive protein levels (C-reactive protein) [mg/L] | Mean survival time (EAC cells [4]) [days] | Increase of p53 expression in relation to the Control group (p53) [%] | further results |
| --- | --- | --- | --- | --- | --- | --- | --- | --- | --- | --- | --- | --- |
| COc1cccc2c1C(=O)c1c(O)c3c(c(O)c1C2=O)C[C@@](O)(C(=O)CO)C[C@@H]3O[C@H]1C[C@H](N)[C@H](O)[C@H](C)O1 [Doxo, doxorubicin] | 2.22 ± 0.63 | 3.6 ± 1.7 | 0.1 ± 0.01 | 2.5 ± 0.6 | 2.2 ± 0.3 | 11.7 ± 0.2 | 0.7 ± 0.15 | 43 | 2.39 | 26 | 20 | Attenuation of weight loss in relation to controls ([1]; EAC caused 11% body weight loss): 54%; Reduction of IL-1β content in relation to controls (IL-1β): 6%; Inhibition of tumor growth (EAC cells [2]; from waist circumference, in relation to the Control group, n=6): 42%; Reduction of body weight variation in relation to the Control group (EAC cells [2]; mice with EAC): 39%; Reduction of volume of ascitic liquid in relation to the Control group (EAC cells [2]; mice with EAC): 54%; Apoptotic cells (EAC cells [3]; [7]): 4%; Necrosis (necrotic cells) (EAC cells [3]; [7]): 36%; Viable cells (EAC cells [3]; [7]): 60%; Percentage of death induced by each treatment (EAC cells [3]; as restated in the discussion): 36%; Increase in C-reactive protein levels compared to controls (C-reactive protein; serum): 47%; Increase of Bax/Bcl-xL ratio in relation to the Control (Bax/Bcl-xl): 38%; Surviving animals at the end of the observation period (EAC cells [4]; n=12, 30 days): 3 animals |
| CC(C)(O)CC(=O)O [HMB, β-hydroxy-β-methylbutyrate] | 2.81 ± 1.05 | 3.2 ± 0.3 | 0.1 ± 0.04 | 3.0 ± 0.8 | 1.9 ± 1.1 | 8.9 ± 0.5 | 0.8 ± 0.2 | 64 | 0.31 | 13.5 | 10 | Improved survival [5]: 42%; Reduction of COX-2 expression compared to controls (COX-2): 4% |
| CC(C)(O)CC(=O)O [free acid form of HMB, β-hydroxy-β-methylbutyric acid] | – | – | – | – | – | – | – | – | – | – | – | Absorption compared with CaHMB [6]: more rapidly absorbed than CaHMB |
